Test results from patent US6991778B2, “Use of dendrimers polyl-functionalized with nitroxide groups as contrast enhancing agents in MRI imaging of joints and injectable compositions comprising them” (Nitrosci, priority 1999, dated 2006).
Like-named read-outs stand apart in the source and are kept apart here.

How the values were obtained:
[1] = cited from earlier work
[2] = in vivo, iv; cited from earlier work
[3] = Relaxivities (k1) of nitroxides and dendrimers; type: physicochemical; parameters: unit not given here; conditions: room temperature, 1.5 T
[4] = rabbit; cited from earlier work
[5] = rabbit joints; Bacic, et al. 1997; cited from earlier work
[6] = MRI of shoulder joints after intra-articular injection; type: in vivo, human; conditions: 1 mL of 100 μM solution into both shoulder joints, 1.5 Tesla
Procedure: Into both shoulder joints of a person (45-55 kg), with post-trauma chronic soreness in one of the shoulder joint is injected 1 mL of a stock 100 μM sterile solution in 0.9% normal saline of a dendrimer of Formula (I) containing 32 terminal PROXYL-3-carbamido nitroxide groups using a (gauge 25) needle. Then position the patent in a MR imager (1.5 Tesla MR system, SIGNA; General Electric Medical Systems, Milwaukee, Wis.) and obtain a scan of both joints in the conventional manner.

[7] = MRI of rabbit knee joint after intra-articular injection; type: in vivo; conditions: 1 mL of stock solution into rabbit knee joint
Procedure: Rabbits (2.8-3.5 kg) to be used for MRI experiments are sedated with intramuscular Ketamine and Xylazine. Anesthesia is maintained with i. v. sodium pentobarbital as required. Under fluoroscopic guidance, a needle (gauge 25) is placed into the knee joint of a thus-anesthetized rabbit and 1 mL of a stock solution of a nitroxyl functionalized dendrimer of Formula (I) containing 32 nitroxyl functionalizing groups. The rabbit's injected joint is then positioned in a MR imager.

[8] = In vitro rate of nitroxide reduction by superoxide in the presence of a thiol (EPR); type: in vitro ADME; conditions: room temperature; nitroxide 50 micromolar, cysteine 200 micromolar, superoxide flux 10 micromolar/min, pH 7.4
Source text: In vitro rate of nitroxide reduction (Table 1) was undertaken using superoxide in the presence of a thiol, as an in vitro model for activated phagocytic cells. G. M. Rosen, B. E. Britigan, M. S. Cohen, S. P. Ellington and M. J. Barber, Biochim. Biophys. Acta, 969:236-241, 1988; G. M. Rosen and E. J. Rauckman. Biochem. Pharmacol. 26: 675-678, 1977; S. Pou, P. L. Davis, G. L. Wolf and G. M. Rosen, Free Rad. Res. 23: 353-364, 1995; and E. Finkelstein, G. M. Rosen and E. J. Rauckman, Biochim. Biophys. Acta, 802:90-98, 1984. For these determinations, nitroxides [S. Pou, et al, E. Finkelstein, et al., supra, and H. Kuthan, V. Ullrich and R. Estabrook, Biochem. J. 203: 551-558, 1982, (50 micromolar) were added to cysteine (200 micromolar) in the presence of a continued flux of superoxide (10 micromolar/min), generated by the action of xanthine oxidase on xanthine (400 micromolar) in Chelexed sodium phosphate buffer (50 mM, pH 7.4) The rate of superoxide production was estimated by following the superoxide dismutase (30 U/mL) inhibitable reduction of ferricytochrome c at […] using a molar absorbance of 21 mM^−1 cm^−1. H. Kuthan et al. supra. Rates of nitroxide reduction were monitored by EPR spectroscopy at ambient temperature by observing the change of the low-field (the broadened EPR spectrum of each dendrimer-linked nitroxide prevented the use of other peaks to measure rates of reduction) as a function of time.

Row | Reduction Rate [8] [µM/min] | Compound | Relaxivity (k1) [3] | also measured
1 | 0.00 | DAB-dendrimer-(NH-3-CO-PROXYL)32 [[9]] | 5.73 | status of the articular cartilage in the MR image [6]: readily identifiable; articular cartilage in the MR image [7]: readily identifiable
2 | 0.00 | DAB-dendrimer-(NH-3-CO-PROXYL)16 [[8]] | 3.19 | 
3 | 0.00 | DAB-dendrimer-(NH-3-CO-PROXYL)8 [[7]] | 1.69 | 

Further lines, the compound ahead of its results:

Row | Compound | Reduction Rate [8] [µM/min] | Relaxivity (k1) [3] | also measured
4 | O=C([O-])CN(CCN(CC(=O)[O-])CC(=O)O)CCN(CC(=O)[O-])CC(=O)O.[Gd+3] [Gd(DTPA), gadolinium (Gd)-DTPA] |  | 4.94 | relaxivity ([1]; as reported by Keana, et al.): 4.95 mM⁻¹ s⁻¹; relaxivity ([1]; room temperature, 1.5 T): ca. 5; equilibration throughout the cartilage [2]: ca. 5 hr
5 | CC1(C)CC(C[N+](C)(C)C)C(C)(C)N1[O].[I-] (stereo not drawn) [3-trimethylaminomethyl-2,2,5,5-tetramethyl-1-pyrrolidinyloxyl iodide] |  |  | in vivo stability [4]: remarkable; affinity toward proteoglycans [5]: high affinity
6 | TREN-dendrimer-(NH-3-CO-PROXYL)3 [[6]] | 7.54 | 0.57 | 
7 | DAB-dendrimer-(NH-3-CO-PROXYL)4 [[5]] | 7.93 | 0.82 | 
8 | CC1(C)CC(C(=O)O)C(C)(C)N1[O] (stereo not drawn) [[1], 3-carboxy-2,2,5,5-tetramethyl-1-pyrrolidinyloxyl, reference compound] | 0.52 | 0.19 | 
9 | DAB-dendrimer-(NH-3-CH2-PROXYL)4 [[15]] |  | 0.82 | 
